“Also recorded” adds a separate entry of the source.
Tests used:
wild-type AR [1] = target: T1, wild-type AR (Homo sapiens, UniProt P10275); assay: Anti-DHT activity on AR transcription, MMTV-Luc reporter in PC-3 cells transfected with AR; assay type: cell-based; design: expressed in transfected cells; host or cells: PC-3; conditions: for suppression of DHT-induced AR transactivation (in words): PC-3, 1 nM DHT, compound at 0.01, 0.1 or 1 μM; for antagonistic effects on DHT-enhanced AR transactivation (in words): compounds related to ADEK, cell line not given
T1 sequence (P10275 1-920): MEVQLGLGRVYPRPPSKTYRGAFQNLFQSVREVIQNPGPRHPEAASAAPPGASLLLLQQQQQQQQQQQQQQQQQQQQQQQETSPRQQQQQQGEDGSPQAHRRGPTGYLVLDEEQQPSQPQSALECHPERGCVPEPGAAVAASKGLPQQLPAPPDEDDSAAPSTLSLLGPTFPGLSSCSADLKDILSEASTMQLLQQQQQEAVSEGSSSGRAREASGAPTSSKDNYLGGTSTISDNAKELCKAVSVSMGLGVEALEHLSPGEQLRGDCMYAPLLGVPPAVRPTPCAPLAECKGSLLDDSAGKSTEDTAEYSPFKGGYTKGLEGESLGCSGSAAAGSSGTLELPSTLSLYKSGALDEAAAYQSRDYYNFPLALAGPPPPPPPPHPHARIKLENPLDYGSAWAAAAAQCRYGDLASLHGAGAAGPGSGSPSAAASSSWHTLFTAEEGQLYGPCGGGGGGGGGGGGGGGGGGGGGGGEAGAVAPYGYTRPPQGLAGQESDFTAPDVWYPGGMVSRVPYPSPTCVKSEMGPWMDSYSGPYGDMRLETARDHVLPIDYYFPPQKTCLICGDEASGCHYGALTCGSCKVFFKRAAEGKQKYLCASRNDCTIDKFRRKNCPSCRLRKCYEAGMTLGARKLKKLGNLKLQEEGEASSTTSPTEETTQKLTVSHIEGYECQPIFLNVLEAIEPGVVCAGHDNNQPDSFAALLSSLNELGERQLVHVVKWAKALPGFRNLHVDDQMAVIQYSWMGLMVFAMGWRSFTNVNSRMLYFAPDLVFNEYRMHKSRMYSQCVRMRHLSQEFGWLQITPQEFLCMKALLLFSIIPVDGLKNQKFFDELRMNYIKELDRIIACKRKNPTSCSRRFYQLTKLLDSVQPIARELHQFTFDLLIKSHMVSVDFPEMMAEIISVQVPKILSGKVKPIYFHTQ
Procedure: (§1) Cell Culture, Transfection, and Reporter Gene Assay. The human prostate cancer cell lines, LNCaP, PC-3, and DU145, and non-prostate cancer cell line COS-1 were maintained in RPMI or Dulbecco's modified Eagle's medium (DMEM) (Life Technologies) supplemented with 10% fetal bovine serum (FBS). Transfections and luciferase (Luc) assays were performed as previously described (Miyamoto, H., Yeh, S., Wilding, G. & Chang, C. (1998) Proc. Natl. Acad. Sci. USA 95, 7379-7384; Miyamoto, H., Rahman, M., Takatera, H., Kang, H.-Y., Yeh, S., Chang, H.-C., Nishimura, K., Fujimoto, N. & Chang, C. (2002) J. Biol. Chem. 277, 4609-4617). Briefly, cells seeded to reach a density of 50-60% confluence in 12 well tissue culture plates were transfected with 1.5 μg of DNA according to “SuperFect transfection” instructions (Qiagen). After 2-3 h incubation, cells were treated with medium supplemented with charcoal-stripped FBS containing either ethanol or ligands for 24 h. The cells were then harvested and whole cell extracts were used for Luc assay. The Luc activity was determined using a Dual-Luciferase Reporter Assay System (Promega) and luminometer.
(§2) To accomplish these studies, PC-3 cells were transfected with the wild-type AR expression plasmid pSG5-AR and MMTV-Luc. […] The Luc activity was measured relative to that of ethanol treatment (set as 1-fold). Values from the mean±SD of at least three determinations were used. PC-3 cells were transfected with the pSG5-AR and MMTV-Luc. […] Values from the mean±SD of at least three determinations were obtained.

wild-type AR [2] = target: T1, wild-type AR; assay: AR transcriptional activity (androgenic activity), MMTV-Luc reporter in PC-3 cells transfected with wild-type AR; assay type: cell-based; design: expressed in transfected cells; host or cells: PC-3; conditions: PC-3, wild-type AR plasmid + MMTV-Luc, compound at 1000 nM, 24 h
Procedure: as §1
Anti-DHT Effect of DHEA Derivatives with Low Androgenic Activity on AR Transcription. Test compounds as antiandrogenic compounds, were characterized by analysis of their ability to induce AR transcriptional activity in the AR-negative PC-3 cell line. The Luc activity was determined in the cell extracts with transient transfection of wild-type AR plasmid and androgen response element-reporter plasmid (mouse mammary tumor virus (MMTV)-Luc). After transfection, the cells were treated with various compounds at 0.1-1,000 nM.
as §2

PSA = PSA expression in LNCaP cells, Western blot; assay type: cell-based, human; conditions: 48 h
Procedure: Western Blot. […] An antibody for -actin (Santa Cruz Biotechnology) was used as the internal control. Blots were quantitated by Collage software (Fotodyne).
The 33-kDa protein was quantitated. β-Actin expression was used as an internal control. […] The mean±SD of three separate experiments was determined. […] Total cell number was counted by hemocytometer. The mean of at least three determinations was determined.

LNCaP cells = assay: LNCaP cell growth, cell count by hemocytometer; assay type: cell-based, human; conditions: 1 nM DHT; 1 μM compound in presence of DHT
Procedure: The mean±SD of three separate experiments was determined. […] Total cell number was counted by hemocytometer. The mean of at least three determinations was determined.

## C[C@]12CC[C@H]3[C@@H](CCC4=C[C@@H](O)CC[C@@]43C)[C@@H]1CC[C@@H]2O [3β,17β-dihydroxyandrost-4-ene]
wild-type AR [1]
  suppression of DHT-induced AR transactivation (in words): less effective

## COC(=O)[C@H]1CC[C@@]2(C)C(=CC(=O)[C@@H]3[C@@H]2CC[C@]2(C)C(=O)[C@H](C(=O)OC)C[C@@H]32)C1 [3β,16α-bis-carbomethoxyandrost-5-ene-7,17-dione]
wild-type AR [1]
  suppression of DHT-induced AR transactivation (in words): less effective

## C[C@]12CC[C@H]3[C@@H]([C@H](O)C=C4C[C@@H](O)CC[C@@]43C)[C@@H]1CC[C@@H]2O [No. 5, 3β,7α,17β-trihydroxyandrost-5-ene]
wild-type AR [2]
  induction on AR transcription as compared to mock treatment: marginal induction
wild-type AR [1]
  suppression of DHT-induced AR transactivation (in words): modest suppression

## C[C@]12CC[C@H](O)C[C@@H]1CC[C@@H]1[C@@H]2CC[C@]2(C)C(=O)[C@H](Br)C[C@@H]12 [16α-bromoepiandrosterone]
wild-type AR [1]
  suppression of DHT-induced AR transactivation (in words): little or no capacity

## CC(=O)O[C@H]1C=C[C@@]2(C)C(=CC[C@@H]3[C@@H]2CC[C@]2(C)C(=O)CC[C@@H]32)C1 [No. 14, 3β-acetoxyandrost-1,5-diene-17-one]
wild-type AR [2]
  induction on AR transcription as compared to mock treatment: marginal induction
wild-type AR [1]
  suppression of DHT-induced AR transactivation (in words): modest suppression
  antagonistic effects on DHT-enhanced AR transactivation (in words): did not show significant antagonistic effects

## CC(=O)O[C@H]1C=C[C@@]2(C)C(=CC[C@H]3[C@@H]4CC[C@H](O)[C@@]4(C)CC[C@@H]32)C1 [3β-acetoxy-17β-hydroxyandrost-1,5-diene]
wild-type AR [1]
  suppression of DHT-induced AR transactivation (in words): less effective
  antagonistic effects on DHT-enhanced AR transactivation (in words): did not show significant antagonistic effects

## CCC(=O)O[C@H]1CC[C@H]2[C@@H]3C(=O)C=C4CC5(CC[C@]4(C)[C@H]3CC[C@]12C)OCCO5 [17β-propionony-7-oxoandrost-5-en-3-ethylene ketal]
wild-type AR [1]
  suppression of DHT-induced AR transactivation (in words): little or no capacity

## C[C@]12CC[C@H]3[C@@H]([C@@H](O)C=C4C[C@@H](O)CC[C@@]43C)[C@@H]1CC[C@@H]2O [3β,7β,17β-trihydroxyandrost-5-ene]
wild-type AR [1]
  suppression of DHT-induced AR transactivation (in words): little or no capacity

## C[C@]12CC[C@H]3[C@@H]([C@@H](O)C=C4CC5(CC[C@@]43C)OCCO5)[C@@H]1CC[C@@H]2O [7β,17β-dihydroxyandrost-5-ene-3-ethylene ketal]
wild-type AR [1]
  suppression of DHT-induced AR transactivation (in words): less effective

## C[C@]12C=C[C@H](O)CC1=CC[C@@H]1[C@@H]2CC[C@]2(C)C(=O)CC[C@@H]12 [No. 16, 3β-hydroxyandrost-1,5-diene-17-one]
wild-type AR [2]
  induction on AR transcription as compared to mock treatment: marginal induction
wild-type AR [1]
  suppression of DHT-induced AR transactivation (in words): modest suppression
  antagonistic effects on DHT-enhanced AR transactivation (in words): did not show significant antagonistic effects

## C[C@]12C=C[C@H](O)CC1=CC[C@@H]1[C@@H]2CC[C@@]2(C)[C@H]1CCC21OCCO1
other
  melting point: 138 to 140 °C

## C[C@]12CCC(=O)C[C@@H]1CC[C@@H]1[C@@H]2CC[C@]2(C)[C@@H](O)CC[C@@H]12 [DHT, dihydrotestosterone, reference compound]
PSA; 1 nM DHT or 1 μM HF, casodex, ADEK in absence of DHT
  endogenous PSA expression over mock treatment: 4.3 fold
LNCaP cells
  effect on LNCaP cell growth, DHT alone or compound with DHT (in words): significantly increased cell growth

## CC12CCC3(CC1=CC(O)C1C2CCC2(C)C1CCC21OCCO1)OCCO3 (stereo not drawn) [7α-hydroxyandrost-5-ene-3,17-bis ethylene ketal]
wild-type AR [1]
  suppression of DHT-induced AR transactivation (in words): less effective; also recorded: little or no capacity

## CC(O)(CS(=O)(=O)c1ccc(F)cc1)C(=O)Nc1ccc(C#N)c(C(F)(F)F)c1 (stereo not shown) [casodex, bicalutamide]
PSA; 1 μM compound + 1 nM DHT
  DHT-induced PSA expression decreased to (DHT = 100%): 58%

## C[C@]12C=CC(=O)C=C1CC[C@@H]1[C@@H]2CC[C@]2(C)C(=O)CC[C@@H]12 [androst-1,4-diene-3,17-dione]
wild-type AR [1]
  suppression of DHT-induced AR transactivation (in words): less effective
  antagonistic effects on DHT-enhanced AR transactivation (in words): did not show significant antagonistic effects

## CC(=O)O[C@H]1CC[C@H]2[C@@H]3CC(=O)C4=CC(=O)CC[C@]4(C)[C@H]3CC[C@]12C [17β-acetoxyandrost-4-ene-3,6-dione]
wild-type AR [1]
  suppression of DHT-induced AR transactivation (in words): little or no capacity

## C[C@]12CC[C@H]3[C@@H]([C@H](O)CC4C[C@@H](O)CC[C@@]43C)[C@@H]1CC[C@@H]2O (stereo partly drawn) [3β,7α,17β-trihydroxyandrostane]
wild-type AR [1]
  suppression of DHT-induced AR transactivation (in words): little or no capacity
